Assay results from patent US12077503B2, “Substituted cyclic amides and their use as herbicides” (FMC CORPORATION, priority 2015, dated 2024).

Experiments:
Assay type in all cases: in vivo
[1] = test system: ryegrass, Italian (Italian ryegrass, Lolium multiflorum); experiment: Test A postemergence; details: postemergence, 0 to 100 scale (0 no effect, 100 complete control)
Method in brief: (§1)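 Preemergence soil spray on seeded pots or post-emergence spray on 1–2 leaf plants, in loam–sand blend. Greenhouse ~10 d. Visual rating 0–100 against untreated plants.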

[2] = test system: blackgrass (Alopecurus myosuroides); experiment: Test A postemergence; details: postemergence, 0 to 100 scale (0 no effect, 100 complete control)
Method in brief: as §1

[3] = test system: Galium (catchweed bedstraw, Galium aparine); experiment: Test A postemergence; details: postemergence, 0 to 100 scale (0 no effect, 100 complete control)
Method in brief: as §1

[4] = test system: giant foxtail (Setaria faberii); experiment: Test A postemergence; details: postemergence, 0 to 100 scale (0 no effect, 100 complete control)
Method in brief: as §1

[5] = test system: wheat (Triticum aestivum); experiment: Test A postemergence; details: postemergence, 0 to 100 scale (0 no effect, 100 complete control)
Method in brief: as §1

[6] = test system: corn (Zea mays); experiment: Test A postemergence; details: postemergence, 0 to 100 scale (0 no effect, 100 complete control)
Method in brief: as §1

[7] = test system: Kochia (Kochia scoparia); experiment: Test A postemergence; details: postemergence, 0 to 100 scale (0 no effect, 100 complete control)
Method in brief: as §1

[8] = test system: barnyardgrass (Echinochloa crus-galli); experiment: Test A postemergence; details: postemergence, 0 to 100 scale (0 no effect, 100 complete control)
Method in brief: as §1

[9] = test system: ragweed (common ragweed, Ambrosia elatior); experiment: Test A postemergence; details: postemergence, 0 to 100 scale (0 no effect, 100 complete control)
Method in brief: as §1

[10] = test system: pigweed (Amaranthus retroflexus); experiment: Test A postemergence; details: postemergence, 0 to 100 scale (0 no effect, 100 complete control)
Method in brief: as §1

[11] = test system: ryegrass, Italian (Italian ryegrass, Lolium multiflorum); experiment: Test A preemergence
Method in brief: as §1

[12] = test system: giant foxtail (Setaria faberii); experiment: Test A preemergence
Method in brief: as §1

[13] = test system: Kochia (Kochia scoparia); experiment: Test A preemergence
Method in brief: as §1

[14] = test system: barnyardgrass (Echinochloa crus-galli); experiment: Test A preemergence
Method in brief: as §1

[15] = test system: ragweed (common ragweed, Ambrosia elatior); experiment: Test A preemergence
Method in brief: as §1

[16] = test system: pigweed (Amaranthus retroflexus); experiment: Test A preemergence
[17] = test system: ducksalad (Heteranthera limosa); experiment: Test B flooded paddy test; details: Flood, 250 g ai/ha; 0 to 100 scale where 0 is no effect and 100 is complete control; 13 to 15 d
Method in brief: (§2)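 Response scored visually against untreated controls, 0 = no effect and 100 = complete control, 13–15 d after treatment in the greenhouse. Compounds added to paddy water held 3 cm above soil surface. Treatment given at 2-leaf stage.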

[18] = test system: sedge, umbrella (small-flower umbrella sedge, Cyperus difformis); experiment: Test B flooded paddy test; details: Flood, 250 g ai/ha; 0 to 100 scale where 0 is no effect and 100 is complete control; 13 to 15 d
Method in brief: as §2

[19] = test system: rice (Oryra sativa); experiment: Test B flooded paddy test; details: Flood, 250 g ai/ha; 0 to 100 scale where 0 is no effect and 100 is complete control; 13 to 15 d
Method in brief: as §2

[20] = test system: barnyardgrass (Echinochloa crus-galli); experiment: Test B flooded paddy test; details: Flood, 250 g ai/ha; 0 to 100 scale where 0 is no effect and 100 is complete control; 13 to 15 d
Method in brief: as §2

[21] = 125 g ai/ha, visual rating after approx. 10 d
[22] = 500 g ai/ha, visual injury, approx. 10 d
[23] = 125 g ai/ha, Preemergence, visual injury after approximately 10 d, 0 to 100 scale where 0 is no effect and 100 is complete control
[24] = 500 g ai/ha, preemergence, 0 to 100 scale, 0 = no effect, 100 = complete control

| SMILES | Plant response rating, Ryegrass, Italian [1, 21] | Plant response rating, Ryegrass, Italian [1, 22] | Plant response rating, Blackgrass [2, 21] | Plant response rating, Blackgrass [2, 22] | Plant response rating, Galium [3, 21] | Plant response rating, Galium [3, 22] | Plant response rating, Foxtail, Giant [4, 21] | Plant response rating, Foxtail, Giant [4, 22] | Plant response rating, Wheat [5, 21] | Plant response rating, Wheat [5, 22] | Plant response rating, Corn [6, 21] | Plant response rating, Corn [6, 22] | Plant response rating, Kochia [7, 21] | Plant response rating, Kochia [7, 22] | Plant response rating, Barnyardgrass [8, 21] | Plant response rating, Barnyardgrass [8, 22] | Plant response rating, Ragweed [9, 21] | Plant response rating, Ragweed [9, 22] | Plant response rating, Pigweed [10, 21] | Plant response rating, Pigweed [10, 22] | further results |
| --- | --- | --- | --- | --- | --- | --- | --- | --- | --- | --- | --- | --- | --- | --- | --- | --- | --- | --- | --- | --- | --- |
| CN1CC(c2ccc(F)c(F)c2)C(C(=O)Nc2ccccc2S(C)(=O)=O)C1=O (stereo not drawn) [Compound 640] | 0 | 0 | 0 | 50 | 40 | 50 | 80 | 90 | 0 | 50 | 0 | 0 | 0 | 40 | 90 | 90 | 0 | 0 | 0 | 20 | Plant response rating, Ryegrass, Italian [11, 23]: 20; Plant response rating, Ryegrass, Italian [11, 24]: 50; Plant response rating, Foxtail, Giant [12, 23]: 90; Plant response rating, Foxtail, Giant [12, 24]: 90; Plant response rating, Kochia [13, 23]: 50; Plant response rating, Kochia [13, 24]: 60; Plant response rating, Barnyardgrass [14, 23]: 90; Plant response rating, Barnyardgrass [14, 24]: 90; Plant response rating, Ragweed [15, 23]: 40; Plant response rating, Ragweed [15, 24]: 60; Plant response rating, Pigweed [16, 23]: 80; Plant response rating, Pigweed [16, 24]: 90; Plant response rating, Ducksalad [17]: 100; Plant response rating, Sedge, Umbrella [18]: 0; Plant response rating, Rice [19]: 25; Plant response rating, Barnyardgrass [20]: 30 |
| CN1CC(c2cc(F)cc(F)c2)C(C(=O)Nc2cccc(F)c2F)C1=O (stereo not drawn) [Compound 644] | 50 | 80 | 60 | 70 | 50 | 60 | 90 | 90 | 50 | 80 | 70 | 80 | 20 | 70 | 90 | 90 | 0 | 40 | 20 | 30 | Plant response rating, Ryegrass, Italian [11, 23]: 60; Plant response rating, Ryegrass, Italian [11, 24]: 90; Plant response rating, Foxtail, Giant [12, 23]: 90; Plant response rating, Foxtail, Giant [12, 24]: 90; Plant response rating, Kochia [13, 23]: 50; Plant response rating, Kochia [13, 24]: 80; Plant response rating, Barnyardgrass [14, 23]: 90; Plant response rating, Barnyardgrass [14, 24]: 90; Plant response rating, Ragweed [15, 23]: 50; Plant response rating, Ragweed [15, 24]: 60; Plant response rating, Pigweed [16, 23]: 60; Plant response rating, Pigweed [16, 24]: 70; Plant response rating, Ducksalad [17]: 98; Plant response rating, Sedge, Umbrella [18]: 0; Plant response rating, Rice [19]: 15; Plant response rating, Barnyardgrass [20]: 85 |
| CC(C)Oc1cccc(C2CN(C)C(=O)C2C(=O)Nc2cccc(F)c2F)c1 (stereo not drawn) [Compound 651] | 50 | 70 | 60 | 70 | 60 | 60 | 80 | 80 | 40 | 60 | 80 | 90 | 0 | 40 | 90 | 90 | 0 | 20 | 0 | 30 | Plant response rating, Ryegrass, Italian [11, 23]: 90; Plant response rating, Ryegrass, Italian [11, 24]: 90; Plant response rating, Foxtail, Giant [12, 23]: 90; Plant response rating, Foxtail, Giant [12, 24]: 100; Plant response rating, Kochia [13, 23]: 60; Plant response rating, Kochia [13, 24]: 70; Plant response rating, Barnyardgrass [14, 23]: 90; Plant response rating, Barnyardgrass [14, 24]: 90; Plant response rating, Ragweed [15, 23]: 50; Plant response rating, Ragweed [15, 24]: 90; Plant response rating, Pigweed [16, 23]: 40; Plant response rating, Pigweed [16, 24]: 100; Plant response rating, Ducksalad [17]: 100; Plant response rating, Sedge, Umbrella [18]: 0; Plant response rating, Rice [19]: 0; Plant response rating, Barnyardgrass [20]: 60 |
| CC(C)Oc1cccc(C2CN(C)C(=O)C2C(=O)Nc2ccccc2S(C)(=O)=O)c1 (stereo not drawn) [Compound 653] | 40 | 60 | 50 | 70 | 40 | 50 | 60 | 90 | 30 | 60 | 0 | 30 | 0 | 0 | 60 | 90 | 0 | 0 | 0 | 0 | Plant response rating, Ryegrass, Italian [11, 23]: 70; Plant response rating, Ryegrass, Italian [11, 24]: 70; Plant response rating, Foxtail, Giant [12, 23]: 90; Plant response rating, Foxtail, Giant [12, 24]: 100; Plant response rating, Kochia [13, 23]: 0; Plant response rating, Kochia [13, 24]: 70; Plant response rating, Barnyardgrass [14, 23]: 90; Plant response rating, Barnyardgrass [14, 24]: 90; Plant response rating, Ragweed [15, 23]: 50; Plant response rating, Ragweed [15, 24]: 80; Plant response rating, Pigweed [16, 23]: 70; Plant response rating, Pigweed [16, 24]: 90; Plant response rating, Ducksalad [17]: 40; Plant response rating, Sedge, Umbrella [18]: 0; Plant response rating, Rice [19]: 0; Plant response rating, Barnyardgrass [20]: 30 |
| Cc1ccc(C2CN(C)C(=O)C2C(=O)Nc2ccccc2S(C)(=O)=O)cc1 (stereo not drawn) [Compound 663] | 40 | 70 | 60 | 70 | 50 | 60 | 90 | 90 | 50 | 70 | 30 | 80 | 20 | 60 | 90 | 90 | 30 | 40 | 0 | 20 | Plant response rating, Ryegrass, Italian [11, 23]: 30; Plant response rating, Ryegrass, Italian [11, 24]: 90; Plant response rating, Foxtail, Giant [12, 23]: 90; Plant response rating, Foxtail, Giant [12, 24]: 100; Plant response rating, Kochia [13, 23]: 70; Plant response rating, Kochia [13, 24]: 80; Plant response rating, Barnyardgrass [14, 23]: 90; Plant response rating, Barnyardgrass [14, 24]: 100; Plant response rating, Ragweed [15, 23]: 30; Plant response rating, Ragweed [15, 24]: 70; Plant response rating, Pigweed [16, 23]: 30; Plant response rating, Pigweed [16, 24]: 70; Plant response rating, Ducksalad [17]: 98; Plant response rating, Sedge, Umbrella [18]: 0; Plant response rating, Rice [19]: 0; Plant response rating, Barnyardgrass [20]: 70 |
